Test results published in US20240300997A1, “PROTEIN FOLDING AGENT” (TOHOKU UNIVERSITY, priority 2021, published 2024).

How the values were obtained:
[1] = biological target: T1, reduced and denatured β2m (β2-microglobulin) (Homo sapiens, UniProt P61769); experiment: Disulfide bond introduction ability into reduced and denatured β2m (reversed-phase HPLC); type: biochemical; conditions: 1 mM thiol compound and 0.2 mM disulfide compound
T1 construct: made in house; host or cells: E. coli
Method: β2m was expressed as a recombinant by an E. coli expression system, and the collected cells were suspended in lysate A (50 mM Tris-HCl, pH 8.1; 300 mM NaCl), followed by ultrasonic disintegration. The fraction obtained after centrifugation was incubated in the presence of 8 M urea and 20 mM DTT at pH 8.0 and 50° C. for 3 hours, followed by purification by reversed-phase column chromatography (Hitachi) using a Cosmosil 5C18-AR-II column. • Reference Document 1: M. Okumura, H. Kadokura, S. Hashimoto, K. Yutani, S. Kanemura, T. Hikima, Y. Hidaka, L. Ito, K. Shiba, S. Masui, D. Imai, S. Imaoka, H. Yamaguchi, K. Inaba, Inhibition of the functional interplay between endoplasmic reticulum (ER) oxidoreduclin-1α (Ero1α) and protein-disulfide isomerase (PDI) by the endocrine disruptor bisphenol A. J Biol Chem. 2014 289(39): 27004-27018. • Reference Document 2: J. S. Weissman, P. S. Kim, Reexamination of the folding of BPTI: predominance of native intermediates. Science 1991 253 (5026): 1386-93. • Reference Document 3: M. M. Lyles, H. F. Gilbert Catalysis of the oxidative folding of ribonuclease A by protein disulfide isomerase: dependence of the rate on the composition of the redox buffer. Biochemistry. 1991 30 (3): 613-9.
A buffer having the following combinations of 1 mM of a thiol compound and 0.2 mM of a disulfide compound (50 mM Tris-HCl, pH 7.5; 300 mM NaCl) was incubated at 30° C. with 10 μM of the reduced and denatured β2m prepared in the above 8), followed by a folding reaction.
The reaction solution was dispensed over time, followed by adding an equal amount of 6 M guanidine hydrochloric acid and 1.5 M HCl, and the disulfide bond introduction reaction was quenched. In order to identify the molecular species in the reaction solution, the resultant was subjected to reversed-phase HPLC, and an oxidation type (N) and a reduction type (R) of β2m were analyzed (FIG. 4A to FIG. 4C and FIG. 5). […]
Measurement and analysis conditions of the reversed-phase HPLC are shown below. 5C18-AR2 column (4.6×150 mm; NACALAI TESQUE) was used as a column, and an absorbance at 229 nm was detected. […]

native type β2m = biological target: T2, native type β2m (Homo sapiens, UniProt P61769); experiment: β2m aggregation experiment by heating; type: biochemical; conditions: 1 mM thiol compound; for appearance of the solution after cooling (before centrifugation): 10 µM native type β2m, heated from 25° C. to 50° C., 10 minutes, cooled to 25° C., FIG. 8; for residual rate of the native type β2m in the supernatant liquid: after heating to 50° C. and centrifugation, absorbance at 280 nm, FIG. 9
T2 construct: made in house; host or cells: E. coli
T2 sequence (P61769 21-119): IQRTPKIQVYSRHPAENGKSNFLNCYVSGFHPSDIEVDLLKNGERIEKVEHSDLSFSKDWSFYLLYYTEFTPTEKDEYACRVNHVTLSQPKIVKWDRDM
Method: A buffer containing 10 µM of native type β2m (50 mM Tris-HCl, pH 7.5; 300 mM NaCl) was heated from 25° C. to 50° C., equilibrated for 10 minutes when the temperature reached 50° C., and then cooled to 25° C. For a supernatant liquid of the fraction obtained after centrifugation, a residual rate of the native type β2m in the supernatant liquid was measured by measuring an absorbance at 280 nm using a spectrophotometer.
For a buffer containing 10 µM of native type β2m (50 mM Tris-HCl, pH 7.5; 300 mM NaCl), 1 mM of the following thiol compound was added, and the obtained mixture was heated from 25° C. to 50° C., equilibrated for 10 minutes when the temperature reached 50° C., and then cooled to 25° C.
For a supernatant liquid of the fraction obtained after centrifugation, a residual rate of the native type β2m in the supernatant liquid was measured by measuring an absorbance at 280 nm using a spectrophotometer.

T1 sequence (P61769 21-119): as above

Molecule | reaction rate constant of the disulfide bond introduction reaction (pseudo-first-order reaction) [1] | appearance of the solution after cooling (before centrifugation) (native type β2m) | residual rate of the native type β2m in the supernatant liquid (native type β2m)
oxidized glutathione [GSSG, reference compound] | 1.12×10^−4 | – | –
NCC(S)CN [BDA-SH, 1,3-diaminopropane-2-thiol] | – | transparent | higher than that in the case of no additive and in the case of GSH
NCCNCCS [LDA-SH, 2-((2-aminoethyl)amino)ethane-1-thiol] | – | transparent | higher than that in the case of no additive and in the case of GSH
NCCNCCSSCCNCCN [LDA-SS] | 6.96×10^−4 | – | –
NCC(CN)SSC(CN)CN [BDA-SS] | 3.59×10^−2 | – | –
